In PMC5736936, “Xylopine Induces Oxidative Stress and Causes G2/M Phase Arrest, Triggering Caspase-Mediated Apoptosis by p53-Independent Pathway in HCT116 Cells” (Oxidative Medicine and Cellular Longevity, 2017):

How the values were obtained:
[1] = system: MRC5 (human lung fibroblast); assay: Cytotoxic activity, alamarBlue assay, 72 h (noncancer cells); format: cell-based; conditions: Homo sapiens
From the text: (§1) MCF7 (human breast carcinoma), HCT116 (human colon carcinoma), HepG2 (human hepatocellular carcinoma), SCC-9 (human oral squamous cell carcinoma), HSC-3 (human oral squamous cell carcinoma), HL-60 (human promyelocytic leukemia), K-562 (human chronic myelogenous leukemia), B16-F10 (murine melanoma), MRC-5 (human lung fibroblast), WT SV40 MEF (wild-type immortalized mouse embryonic fibroblast), and BAD KO SV40 MEF (BAD gene knockout immortalized mouse embryonic fibroblast) cell lines were obtained from the American Type Culture Collection (ATCC, Manassas, VA, USA). Cells were cultured in complete medium with appropriate supplements as recommended by ATCC. All cell lines were tested for mycoplasma using the Mycoplasma Stain Kit (Sigma-Aldrich) to validate the use of cells free from contamination. Primary cell culture of peripheral blood mononuclear cells (PBMC) was obtained by standard Ficoll density protocol. The Research Ethics Committee of the Oswaldo Cruz Foundation (Salvador, BA, Brazil) approved the experimental protocol (number 031019/2013). Cell viability was examined using trypan blue exclusion assay for all experiments.
(§2) Cell viability was quantified using the alamarBlue assay according to Ahmed et al.. Cells were inserted in 96-well plates for all experiments (7 × 10^4 cells/mL for adherent cells or 3 × 10^5 cells/mL for suspended cells in 100 μL of medium). After 24 h, xylopine was dissolved in dimethyl sulfoxide (DMSO) and added to each well and incubated for 72 h. […] Four (for cell lines) or 24 h (for PBMCs) before the end of incubation, 20 μL of a stock solution (0.312 mg/mL) of the alamarBlue (resazurin, Sigma-Aldrich Co., Saint Louis, MO, USA) was added to each well. Absorbance at 570 nm and 600 nm was measured using the SpectraMax 190 Microplate Reader (Molecular Devices, Sunnyvale, CA, USA), and the drug effect was quantified as the percentage of control absorbance.

[2] = system: PBMC (human peripheral blood mononuclear cells); assay: as above; format: cell-based; conditions: Homo sapiens
From the text: as §1, §2

[3] = system: WT SV40 MEF (wild-type immortalized mouse embryonic fibroblast); assay: Cytotoxic activity in wild-type fibroblasts; format: cell-based; conditions: WT SV40 MEF cell line
From the text: as §1, §2

[4] = system: human hepatocellular carcinoma HepG2 cells; design: method as in PMID 27399666; conditions: cited from earlier work

`COc1ccc2c(c1)C[C@@H]1NCCc3cc4c(c-2c31)OCO4` [XYL, xylopine] showed an IC50 [1] of 24.1 µM, an IC50 [2] of 18.3 µM and an IC50 [3] of 8 µM. For the same compound, the “cell cycle arrest and apoptosis” value [4] was “causes G2/M cell cycle arrest and apoptosis”.
